From paper PMC7617869, “Molecular glues that inhibit deubiquitylase activity and inflammatory signaling” (Nature Structural & Molecular Biology, 2025)
Where “and” joins values, the source holds several entries; their conditions need not be identical. Equal entries are not always repeated. Values belong to the compound of their own block, whether it stands above or below them.

Experiments:
USP2 = target: T1, USP2 (Homo sapiens, UniProt O75604); assay: USP2 IQF diubiquitin selectivity assay; assay type: biochemical; conditions: for USP2, normalised activity (Ext. 1a): two replicate columns
T1 construct: His (N, cleaved yes); host or cells: Escherichia coli BL21(DE3)
T1 sequence (O75604 258-605 limits assumed): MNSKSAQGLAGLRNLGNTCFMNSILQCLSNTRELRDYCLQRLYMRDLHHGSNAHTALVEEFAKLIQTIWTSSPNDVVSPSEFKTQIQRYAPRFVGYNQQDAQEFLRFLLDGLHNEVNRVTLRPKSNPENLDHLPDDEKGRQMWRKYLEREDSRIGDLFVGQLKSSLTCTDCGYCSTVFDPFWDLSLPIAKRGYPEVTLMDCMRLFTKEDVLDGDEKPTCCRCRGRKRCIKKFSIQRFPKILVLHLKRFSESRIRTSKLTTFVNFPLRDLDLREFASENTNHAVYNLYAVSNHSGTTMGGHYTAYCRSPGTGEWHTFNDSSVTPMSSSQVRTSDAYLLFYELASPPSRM
Experimental: BRISC DUB activity was measured at room temperature using 1 nM BRISC and 500 nM IQF diubiquitin K63 substrate (LifeSensors, DU6303) in the presence of DMSO and compounds at 10 μM (final concentrations). Assays were performed in 384-well black flat-bottom low-flange plates (Corning, 35373) in buffer containing 50 mM HEPES–NaOH pH 7.0, 100 mM NaCl, 1 mg ml^−1 BSA, 1 mM DTT and 0.03% v/v Brij-35. Then, 10 μl of twofold concentrated enzyme stock was dispensed, followed by transfer of 200 nl of compounds (1 mM stock) using a 384-pin tool and a 15-min incubation at room temperature. Then, 10 μl of twofold concentrated substrate stock was added and the reaction was monitored by measuring fluorescence intensity (excitation, 540 nm; emission, 580 nm) after 20-min incubation at room temperature and ~50% of substrate was consumed. Orthogonal assays for verification of H20 and P12 hit compounds using USP2 (100 nM) and trypsin (125 nM) were performed in identical conditions.
IQF assays were performed in DUB reaction buffer containing 50 mM HEPES–NaOH pH 7.0, 100 mM NaCl, 0.1 mg ml^−1 BSA, 1 mM DTT and 0.03% v/v Brij-35. […] The final concentration of BRISC WT, all BRISC mutants, HsBRISCΔLoop, MmBRISC and DrBRISCΔNΔC was 1 nM. Other enzymes were tested at the following concentrations: 5 nM ARISC (FL), 10 nM CfBRISCΔNΔC, 250 nM AMSH* (ref. [43]), 500 nM USP2 and 1 μM trypsin (Sigma, 9002-07-7). For Michaelis–Menten experiments, 1 nM BRISC with 0–1 μM IQF K63-linked diubiquitin substrate was used. Michaelis–Menten analyses and Lineweaver–Burk plots were calculated using GraphPad Prism (version 9.0).
To assess enzymatic activity, BRISC complexes were diluted to concentrations between 1 nM and 50 nM. […] Then, 20-μl enzyme reactions were carried out in 384-well black flat-bottom low-flange plates (Corning, 35373). DUB activity was measured using IQF K63-linked diubiquitin (LifeSensors, DU6303) at 50 nM. Cleaved diubiquitin was monitored by measuring fluorescence intensity (excitation, 544 nm; emission, 575 nm; dichroic mirror, 560 nm). Fluorescence intensity was measured every minute for 30 min at 30 °C. Fluorescence intensity units were plotted against time to generate a linear reaction progress curve, where the initial velocity (V0) corresponds to the gradient of the curve (typically achieved within 15 min). IC50 values were calculated using the GraphPad Prism (version 9.0) built-in dose–response equation for inhibitor concentration versus response (variable slope).

BRISC (FL) = target: T2, BRISC (FL) (Homo sapiens, UniProt P46736+Q15018+Q9NXR7); assay: In-gel deubiquitylation assay, TAMRA-labeled K63-tetraubiquitin, BRISC; assay type: biochemical; conditions: 10 μM or 100 μM inhibitor
T2 construct: full-length BRISC (FL), ARISC (FL); made in house; host or cells: Spodoptera frugiperda Sf9 insect cells (MultiBac)
Experimental: The inhibitor capzimin (Merck) was diluted in 1 mM DTT and incubated for 30 min at room temperature to reduce disulfide bonds required for inhibitor activity. […] DUBs were incubated with 750 nM TAMRA-labeled K63-tetraubiquitin (LifeSensors, SI6304T) for 10 min at 30 °C. Reactions were quenched by adding 2.5 μl of 4× SDS–PAGE loading dye (240 mM Tris-HCl pH 6.8, 40% v/v glycerol, 8% w/v SDS, 0.04% w/v bromophenol blue and 5% v/v β-mercaptoethanol). The samples were resolved on 4–12% NuPAGE Bis–Tris gels (Thermo Fisher Scientific). Gels were scanned using an iBright FL 1500 (Thermo Fisher Scientific) (excitation, 515–545 nm; emission, 568–617 nm; exposure, 500 ms).

Normalised V0 (USP2; Fig. 1e, USP-2, JMS-175-2 0.02 μM): 1.069 and 1.241 and 0.9432
Normalised V0 (USP2; Fig. 1e, USP-2, JMS-175-2 0.0399999 μM): 0.8007 and 1.129 and 1.003
Normalised V0 (USP2; Fig. 1e, USP-2, JMS-175-2 0.0599997 μM): 1.048 and 0.9811 and 1.113
Normalised V0 (USP2; Fig. 1e, USP-2, JMS-175-2 0.0799994 μM): 0.9033 and 1.198 and 1.261
Normalised V0 (USP2; Fig. 1e, USP-2, JMS-175-2 0.119998 μM): 0.9288 and 1.09 and 1.206
Normalised V0 (USP2; Fig. 1e, USP-2, JMS-175-2 0.199996 μM): 0.6627 and 1.115 and 1.202
Normalised V0 (USP2; Fig. 1e, USP-2, JMS-175-2 0.499975 μM): 0.7837 and 1.098 and 1.253
Normalised V0 (USP2; Fig. 1e, USP-2, JMS-175-2 0.799936 μM): 0.8725 and 1 and 1.269
Normalised V0 (USP2; Fig. 1e, USP-2, JMS-175-2 1.25984 μM): 0.992 and 1.247
Normalised V0 (USP2; Fig. 1e, USP-2, JMS-175-2 1.9996 μM): 0.8222 and 1.018 and 1.206
Normalised V0 (USP2; Fig. 1e, USP-2, JMS-175-2 3.159 μM): 1.0183 and 0.9107 and 1.032
Normalised V0 (USP2; Fig. 1e, USP-2, JMS-175-2 5.19739 μM): 1.009 and 1.289
Normalised V0 (USP2; Fig. 1e, USP-2, JMS-175-2 7.99364 μM): 0.8621 and 1.003 and 1.185
Normalised V0 (USP2; Fig. 1e, USP-2, JMS-175-2 12.7839 μM): 0.6092 and 0.9802 and 1.084
Normalised V0 (USP2; Fig. 1e, USP-2, JMS-175-2 19.96 μM): 1.301 and 1.171 and 1.043
Normalised V0 (USP2; Fig. 1e, USP-2, JMS-175-2 31.4999 μM): 1.058 and 1.049 and 0.9631
Normalised V0 (USP2; Fig. 1e, USP-2, JMS-175-2 50.147 μM): 1.16 and 1.045 and 1.064
Normalised V0 (USP2; Fig. 1e, USP-2, JMS-175-2 79.7601 μM): 0.9987 and 0.9518 and 1.282
Normalised V0 (USP2; Fig. 1e, USP-2, JMS-175-2 125.99 μM): 1.008 and 1.145 and 1.176
Normalised V0 (USP2; Fig. 1e, USP-2, JMS-175-2 199.922 μM): 0.9471 and 0.7832 and 0.9905
USP2, normalised activity (Ext. 1a) (USP2; log [compound (μM)] 0.1938, listed as H20): 1.2610 and 1.0496
USP2, normalised activity (Ext. 1a) (USP2; log [compound (μM)] 0.4949, listed as H20): 1.2203 and 1.1061
USP2, normalised activity (Ext. 1a) (USP2; log [compound (μM)] 0.7959, listed as H20): 1.1774 and 1.0526
USP2, normalised activity (Ext. 1a) (USP2; log [compound (μM)] 1.0969, listed as H20): 1.1262 and 1.0278
USP2, normalised activity (Ext. 1a) (USP2; log [compound (μM)] 1.3979, listed as H20): 1.0528 and 0.9672
USP2, normalised activity (Ext. 1a) (USP2; log [compound (μM)] 1.6990, listed as H20): 1.0367 and 0.9078
USP2, normalised activity (Ext. 1a) (USP2; log [compound (μM)] 2.0000, listed as H20): 0.9400 and 0.8456
USP2, normalised activity (Ext. 1a) (USP2; log [compound (μM)] 2.3010, listed as H20): 0.9026 and 0.7165
USP2, normalised activity (Ext. 1a) (USP2; log [compound (μM)] -0.1072, listed as H20): 1.1074 and 1.0499
USP2, normalised activity (Ext. 1a) (USP2; log [compound (μM)] -0.4082, listed as H20): 1.1923 and 1.0651
USP2, normalised activity (Ext. 1a) (USP2; log [compound (μM)] -0.7093, listed as H20): 1.1905 and 1.0735
USP2, normalised activity (Ext. 1a) (USP2; log [compound (μM)] -1.7100, normalisation point): 1.0000
inhibition of BRISC cleavage of K63-linked tetraubiquitin (BRISC (FL)): inhibit
SMILES: O=C(NC1CCNCC1)c1nn(C(=O)c2c(Cl)cccc2Cl)cc1NC(=O)c1c(Cl)cccc1Cl [JMS-175-2]

Normalised V0 (USP2; Fig. 1g, USP2, FX-171-C 0.02 μM): 1.153 and 1.005 and 0.8911
Normalised V0 (USP2; Fig. 1g, USP2, FX-171-C 0.0399999 μM): 1.181 and 1.054 and 0.8345
Normalised V0 (USP2; Fig. 1g, USP2, FX-171-C 0.0599997 μM): 1.101 and 1.035 and 0.8564
Normalised V0 (USP2; Fig. 1g, USP2, FX-171-C 0.0799994 μM): 1.262 and 0.9465 and 0.964
Normalised V0 (USP2; Fig. 1g, USP2, FX-171-C 0.119998 μM): 1.156 and 1.12 and 1.0155
Normalised V0 (USP2; Fig. 1g, USP2, FX-171-C 0.199996 μM): 1.162 and 0.9867 and 0.9385
Normalised V0 (USP2; Fig. 1g, USP2, FX-171-C 0.499975 μM): 1.323 and 0.7865 and 0.9403
Normalised V0 (USP2; Fig. 1g, USP2, FX-171-C 0.799936 μM): 1.167 and 0.9524 and 0.9376
Normalised V0 (USP2; Fig. 1g, USP2, FX-171-C 1.25984 μM): 1.254 and 0.9797 and 0.8377
Normalised V0 (USP2; Fig. 1g, USP2, FX-171-C 1.9996 μM): 1.211 and 0.9571 and 0.9503
Normalised V0 (USP2; Fig. 1g, USP2, FX-171-C 3.159 μM): 1.329 and 0.7564 and 0.948
Normalised V0 (USP2; Fig. 1g, USP2, FX-171-C 5.19739 μM): 1.206 and 0.9941 and 0.9284
Normalised V0 (USP2; Fig. 1g, USP2, FX-171-C 7.99364 μM): 1.269 and 0.9668 and 0.7862
Normalised V0 (USP2; Fig. 1g, USP2, FX-171-C 12.7839 μM): 1.167 and 1.027 and 0.9175
Normalised V0 (USP2; Fig. 1g, USP2, FX-171-C 19.96 μM): 1.282 and 0.8934 and 0.9216
Normalised V0 (USP2; Fig. 1g, USP2, FX-171-C 31.4999 μM): 1.071 and 0.9617 and 0.949
Normalised V0 (USP2; Fig. 1g, USP2, FX-171-C 50.147 μM): 1.087 and 1.072 and 0.8163
Normalised V0 (USP2; Fig. 1g, USP2, FX-171-C 79.7601 μM): 1.1 and 0.8638 and 0.912
Normalised V0 (USP2; Fig. 1g, USP2, FX-171-C 125.99 μM): 1.048 and 0.9793 and 0.8997
Normalised V0 (USP2; Fig. 1g, USP2, FX-171-C 199.922 μM): 1.047 and 0.829 and 0.8108
inhibition of BRISC cleavage of K63-linked tetraubiquitin (BRISC (FL)): inhibit
SMILES: O=C(NC1C2CNCC21)c1nn(C(=O)c2c(Cl)cccc2Cl)cc1NC(=O)c1c(Cl)cccc1Cl (stereo not drawn) [FX-171-C]
